The conditions of data set [1]: the highest pKa value at 25 °C; ref 42 and references of Table S2; cited from earlier work.
The conditions of data set [2]: guinea pig, in vivo; cited from earlier work.
Data set [3] in a line: Drug nucleation induction time (UV extinction at 440 nm). Format: physicochemical. Conditions: for induction time at 160 μg/mL: no polymer, 37 °C.
The conditions of data set [4]: cited from earlier work.
For data set [5] the following is noted: rats, PTM with hydroxypropyl-β-cyclodextrin; cited from earlier work.
The nature of data set [6]: Glass transition temperature by DSC. In kind it is physicochemical. Conditions: for reduced glass transition temperature (Tg/Tm): calculated as Tg/Tm. How it is done:
The glass transition temperature (Tg) of ASD samples was measured by a TA Q2000 differential scanning calorimeter (DSC) equipped with an RCS90 refrigeration unit (TA Instruments, New Castle, DE). The temperature calibration was performed using indium and tin, while enthalpy calibration was conducted with indium. The samples (5–10 mg) were added to aluminum pans with a pinhole lid (Tzero pan, TA Instrument, DE). The sample was equilibrated at −20 °C and heated from −20 to 210 °C at 5 °C/min then cooled back down to −20 °C at 10 °C/min under a nitrogen flow of 50 mL/min. The heating and cooling cycle was repeated three times to remove residual solvent and thermal history, and the last cycle was used for analysis.

For data set [7] the following is noted: monkeys, PTM suspension in 0.5% sodium carboxymethyl cellulose; cited from earlier work.
The nature of data set [8]: physchem. Conditions: kinetic from dmso stock.
The conditions of data set [9]: humans, 200 mg PTM with high-calorie, high-fat meal; cited from earlier work.
The nature of data set [10]: physchem.
Test in data set [11]: not given
This is another data set of the same source.

We go through three compounds from article PMC10245392, “Fed- and Fasted-State Performance of Pretomanid Amorphous Solid Dispersions Formulated with an Enteric Polymer” (Molecular Pharmaceutics, 2023).

By pKa is commonly meant the pH at which an ionisable group is half protonated. One may read the solubility as how much of the substance goes into solution per volume. Low values mean a poorly soluble substance, high ones a readily soluble substance. In general, thermodynamic solubility refers to solubility found after equilibrating the solid with the medium.

In brackets after ≈: the same amount, converted by molar mass. Several values for one entry are separate records, joined by “and”; a condition that tells them apart may be missing. Equal entries are not always repeated. Where two headings read alike, the source gives them in different places.

Turning to `CN(C)CCO` [2-Dimethylaminoethanol], the pKa in data set [1] is recorded as 9.23.

On to `O=[N+]([O-])c1cn2c(n1)OC[C@@H](OCc1ccc(OC(F)(F)F)cc1)C2` [PTM, Pretomanid], for which the systemic exposure in [2] is 6.7–13.5%. The induction time in [3] is 77.6 ± 13.6 min and ~77 min; in [3] (PTM 80 μg/mL, PB (pH 6.5), 100 μg/mL HPMC), ~22 min. Moreover, the “induction time at 160 μg/mL” value is on record as 0.9 ± 0.3 min in data set [3] (FaSSIF V1 (pH 6.5)); 1.6 ± 0.2 min in data set [3] (HCl solution (pH 1.6)); 1.3 ± 0.1 min in data set [3] (phosphate buffer (pH 3.0)); 1.6 ± 0.2 min in data set [3] (phosphate buffer (pH 5.0)); 1.4 ± 0.2 min in [3] (phosphate buffer (pH 6.5)). Also, the “nucleation induction time in solution” value in data set [3] (media of Table 2, no polymer) is “less than 2 min”. In addition, in data set [3] (pH 6.5), the “induction time (no crystallization observed up to)” value was > 1000 min. Further, the water solubility in data set [4] was 10 to 20 µg/mL. For the same compound, the mean oral bioavailability in data set [5] is 52%; in data set [7], 19%. The “reduced glass transition temperature (Tg/Tm)” value in [6] was 0.67. The “Tg (glass transition temperature)” value in data set [6] (neat drug) is 10 °C. The solubility was 141 ± 3.7 µg/mL (≈ 392 µM) in data set [8] (pH 1.6, simulated gastric fluid); 143 ± 2.4 µg/mL (≈ 399 µM) in data set [8] (pH 3, aqueous buffer); 160 ± 5.7 µg/mL (≈ 444 µM) in data set [8] (pH 5, aqueous buffer); 166 ± 6.2 µg/mL (≈ 462 µM) in data set [8] (pH 6.5, aqueous buffer); 308 ± 12 µg/mL (≈ 857 µM) in data set [8] (pH 6.5, fassif); 15.2 ± 1.4 µg/mL (≈ 42.3 µM) in [10] (37 °C, pH 1.6, simulated gastric fluid, thermodynamic from solid). In addition, the solubility is 17.8 ± 0.3 µg/mL (≈ 49.5 µM) in [10] (37 °C, pH 3, aqueous buffer, thermodynamic from solid); 16.8 ± 0.1 µg/mL (≈ 46.8 µM) in data set [10] (37 °C, pH 5, aqueous buffer, thermodynamic from solid); 17 ± 0.3 µg/mL (≈ 47.3 µM) in [10] (37 °C, pH 5.8, aqueous buffer, thermodynamic from solid); 108.1 ± 0.1 µg/mL (≈ 301 µM) in data set [10] (37 °C, pH 5.8, fessif, thermodynamic from solid); 16.2 ± 1.4 µg/mL (≈ 45.1 µM) in data set [10] (37 °C, pH 6.5, aqueous buffer, thermodynamic from solid); 53.8 ± 4 µg/mL (≈ 150 µM) in data set [10] (37 °C, pH 6.5, fassif, thermodynamic from solid). For the same compound, in data set [10] (pH 5.8), the solubility was ~110 µg/mL (≈ 306 µM). The “A/C ratio (amorphous/crystalline solubility ratio)” value worked out at 9.3 (HCl solution (pH 1.6)), 8.1 (phosphate buffer (pH 3.0)), 9.5 (phosphate buffer (pH 5.0)) and 10.2 (phosphate buffer (pH 6.5)). Moreover, the “amorphous/crystalline solubility (A/C) ratio” value (buffer solutions, overall) is given as 8–10. In addition, in data set [9], the “increase in AUC0-inf with food” value is given as 88%. In data set [9], the “increase in Cmax with food” value is listed as 76%. The compound further yielded a thermodynamic solubility in [10] of 15 to 18 µg/mL (≈ 41.8 to 50.1 µM). Besides, the “factor of increase of equilibrium solubility” value in data set [11] (pH 5.8) was ~6; in data set [11] (pH 6.5), ~3.

On to `C[C@]1(COc2ccc(N3CCC(Oc4ccc(OC(F)(F)F)cc4)CC3)cc2)Cn2cc([N+](=O)[O-])nc2O1` [delamanid], for which the “Tg (glass transition temperature)” value in data set [4] (neat drug) is ~43 °C. The “reduced glass transition temperature (Tg/Tm)” value in data set [6] is reported as 0.64.
